Experimental findings from patent US20080260838A1 (priority 2003, published 2008) are described below.

The subject of experiment [1] is Rat pancreatic epithelial (ARIP) cells. Briefly: Staurosporine-induced cell death in ARIP cells (Cell Titer-Glo). To be noted: GLP-1 up to 10 nM, 5 μM staurosporine […]. In kind it is cell-based.
Description: Cell viability was evaluated using Cell Titer-Glo™ (Promega, Madison, Wis.).
The formulations were analyzed for their ability to inhibit staurosporine-induced cell death in ARIP cells.
All of the results shown are averages of triplicate runs.
The test system is the same in experiment [2]. Description: Apoptosis by FACS analysis using Annexin V staining. In kind it is cell-based. To be noted: 15 nM GLP-1, 1 μM staurosporine 4 hrs. An excerpt:
Annexin V staining is a useful tool in detecting apoptotic cells and is well known to those of skill in the art. Binding of Annexin V to the cell membrane, allows for the analysis of changes in […] (PS) asymmetry before morphological changes associated with apoptosis occurred and before membrane integrity is lost.

For experiment [3], the system named is β-cell mass. Briefly: Effect on β-cell mass, cells treated at day 1, 3 and 5. The format is cell-based. To be noted: cells treated with GLP-1/FDKP versus untreated cells.
For experiment [4], the target named is T1, DPP-IV (Rattus norvegicus, UniProt P14740).
T1 construct: from tissue; host or cells: rat bronchial lung lavage fluid
T1 sequence (P14740 whole entry): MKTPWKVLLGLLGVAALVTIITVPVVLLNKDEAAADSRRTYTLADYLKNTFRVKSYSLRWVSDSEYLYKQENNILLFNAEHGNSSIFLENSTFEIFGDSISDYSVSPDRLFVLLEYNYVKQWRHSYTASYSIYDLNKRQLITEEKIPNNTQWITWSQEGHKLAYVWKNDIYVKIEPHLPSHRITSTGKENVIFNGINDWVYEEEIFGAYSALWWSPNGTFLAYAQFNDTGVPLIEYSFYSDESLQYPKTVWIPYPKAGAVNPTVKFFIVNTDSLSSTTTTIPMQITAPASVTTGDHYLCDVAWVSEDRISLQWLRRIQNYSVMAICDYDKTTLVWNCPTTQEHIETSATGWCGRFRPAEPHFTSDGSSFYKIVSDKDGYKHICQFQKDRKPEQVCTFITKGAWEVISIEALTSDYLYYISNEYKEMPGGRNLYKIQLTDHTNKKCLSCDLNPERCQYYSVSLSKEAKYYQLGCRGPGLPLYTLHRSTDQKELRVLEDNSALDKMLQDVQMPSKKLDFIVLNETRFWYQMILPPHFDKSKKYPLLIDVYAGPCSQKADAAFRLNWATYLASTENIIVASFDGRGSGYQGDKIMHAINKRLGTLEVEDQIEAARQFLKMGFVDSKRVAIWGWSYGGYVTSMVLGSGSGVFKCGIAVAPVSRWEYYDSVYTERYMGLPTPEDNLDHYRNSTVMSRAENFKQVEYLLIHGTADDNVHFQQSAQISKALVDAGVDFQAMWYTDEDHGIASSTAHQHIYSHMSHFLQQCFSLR
Description: DPP-IV activity, cleavage of luminescent Gly-Pro substrate in bronchial lung lavage fluid. To be noted: aprotinin 1, 2, 3, 4 and 5 TIU/ml. In kind it is biochemical. As to the method:
Aprotinin, a naturally occurring serine protease inhibitor, which is known in the art to inhibit protein degradation was added to the samples post collection at 1, 2, 3, 4 and 5 TIU/ml. DPP-IV activity was then measured by detecting the cleavage of a luminescent substrate containing the DPP-IV recognized Gly-Pro sequence. Bronchial lung lavage fluid was incubated with proluminescent substrate for 30 min and cleavage product was detected by luminescence.

Consider GLP-1, for which the “percent of cell death” value in experiment [1] is on record as “decrease in the percent of cell death”. The “inhibition of staurosporine induced apoptosis” value in experiment [2] is “about 40%”. For the same substance, the “increase in β-cell mass” value in experiment [3] is “up to 2 fold”.

aprotinin: the “inhibition of DPP-IV activity” value in experiment [4] is recorded as “increase in inhibition of DPP-IV activity”.
